Target: CDK2 (human) (UniProt P24941)
Experiment: Enzyme Assay

Ki	SMILES
< 1000 nM	O=c1[nH][nH]c2cc(Nc3nc(Nc4cc(C5CC5)[nH]n4)cc(-c4ccccc4)n3)ccc12
< 1000 nM	Cc1cccc2c(Nc3cc(-c4ccco4)[nH]n3)nc(-c3ccc4[nH][nH]c(=O)c4c3OC(F)(F)F)nc12
< 1000 nM	O=c1[nH][nH]c2cc(OCCC(Nc3ccccn3)c3ccccc3)ccc12 (stereo not given)
< 1000 nM	O=c1[nH][nH]c2ccc(-c3nc(Nc4n[nH]c5ccccc45)c4cccnc4n3)c(C(F)(F)F)c12
< 1000 nM	Cc1cc(Nc2nc(Sc3ccc4c(=O)[nH][nH]c4c3)cc3ccccc23)n[nH]1
< 1000 nM	CCc1cc(Nc2cc(C)[nH]n2)nc(C2(c3ccc4c(=O)[nH][nH]c4c3)CCC2)n1
< 1000 nM	O=C(CC(=O)Nc1nccnn1)Cc1ccc2c(=O)[nH][nH]c2c1
< 1000 nM	CCCCc1cc(Nc2nc(-c3ccc4[nH][nH]c(=O)c4c3)nc(C3CC3)n2)n[nH]1
< 1000 nM	O=c1[nH][nH]c2cc(SC(CCNc3nccnn3)Cc3ccccc3)ccc12 (stereo not given)
< 1000 nM	O=C(CCNc1cc(C2CC2)[nH]n1)Nc1ccc2c(=O)[nH][nH]c2c1
< 1000 nM	Cc1nc(Nc2nc(-c3ccc4[nH][nH]c(=O)c4c3C(N)=O)nc3ccccc23)n[nH]1
< 1000 nM	O=c1[nH][nH]c2cc(NOCCNc3nccnn3)ccc12
< 1000 nM	COCc1cc(Nc2nc(-c3ccc4[nH][nH]c(=O)c4c3C(F)(F)F)nc3ccccc23)n[nH]1
< 1000 nM	O=c1[nH][nH]c2cc(Nc3ncnc(Nc4cc(C5CC5)[nH]n4)n3)ccc12
< 1000 nM	Cn1cnc(NCCC(Cc2ccccc2)Nc2ccc3c(=O)[nH][nH]c3c2)c1 (stereo not given)
< 1000 nM	O=c1[nH][nH]c2cc(CC3CCCC(Nc4cc(C5CC5)[nH]n4)C3)ccc12 (stereo not given)
< 1000 nM	Cc1cc(Nc2cnnc(-c3ccc4[nH][nH]c(=O)c4c3)c2)n[nH]1
< 1000 nM	O=c1[nH][nH]c2ccc(C3CCC(Nc4ccccn4)C3)cc12 (stereo not given)
< 1000 nM	O=C(CC(=O)Nc1cc(C2CC2)[nH]n1)Nc1ccc2c(=O)[nH][nH]c2c1
< 1000 nM	O=c1[nH][nH]c2ccc(-c3nc(Nc4n[nH]c5c4CCCC5)c4ccccc4n3)c(C(F)(F)F)c12
< 1000 nM	Cc1cc(Nc2cc(C3CC3)[nH]n2)nc(Oc2ccc3c(=O)[nH][nH]c3c2)n1
< 1000 nM	Cc1cc(Nc2nc(Nc3ccc4c(=O)[nH][nH]c4c3)nc(C)c2C)n[nH]1
< 1000 nM	O=c1[nH][nH]c2ccc(-c3nnc(C4CC4)c(Nc4n[nH]c5ccccc45)n3)c(C(F)(F)F)c12
< 1000 nM	Cc1cc(Nc2nc(CSc3ccc4[nH][nH]c(=O)c4c3)nc3ccccc23)n[nH]1

Ki	SMILES
< 1000 nM	Cn1cnc(NCCCCc2ccc3c(=O)[nH][nH]c3c2)c1
< 1000 nM	O=c1[nH][nH]c2ccc(-c3nc4c(c(Nc5n[nH]c6ccc(F)cc56)n3)CCNC4)c(C(F)(F)F)c12
< 1000 nM	NC(=O)c1cc(-c2ncnc(Nc3n[nH]c4c3CCC(=O)C4)n2)cc2c(=O)[nH][nH]c12
< 1000 nM	O=c1[nH][nH]c2cc(OCCC(Nc3cc(C4CC4)[nH]n3)c3ccccc3)ccc12 (stereo not given)
< 1000 nM	Cc1cc(Nc2cc(C(C)(C)OCCN(C)C)nc(Sc3ccc4c(=O)[nH][nH]c4c3)n2)n[nH]1
< 1000 nM	CN(C)c1nc(Nc2ccc3c(=O)[nH][nH]c3c2)nc(Nc2cc(C3CC3)[nH]n2)n1
< 1000 nM	CN(C)CCCOc1cc(Nc2cc(C3CC3)[nH]n2)nc(Sc2ccc3c(=O)[nH][nH]c3c2)n1
< 1000 nM	O=c1[nH][nH]c2cc(Nc3nc(Cl)nc(Nc4cc(C5CC5)[nH]n4)n3)ccc12
< 1000 nM	Cc1cc(Nc2nc(Nc3ccc4c(=O)[nH][nH]c4c3)nc3ccccc23)n[nH]1
< 1000 nM	Cc1cnc(NC2CCCC(Nc3ccc4c(=O)[nH][nH]c4c3)C2)s1 (stereo not given)
< 1000 nM	O=c1[nH][nH]c2cc(Nc3ncc([N+](=O)[O-])c(Nc4cc(C5CC5)[nH]n4)n3)ccc12
< 1000 nM	Cc1nc(-c2cc3c(=O)[nH][nH]c3cc2Cl)cc(Nc2n[nH]c3ccc(F)cc23)c1C
< 1000 nM	COc1ccc2c(Nc3cc(C)[nH]n3)nc(Sc3ccc4c(=O)[nH][nH]c4c3)nc2c1
< 1000 nM	O=c1[nH][nH]c2cc(Oc3cc(Nc4cc(C5CC5)[nH]n4)c4ccccc4n3)ccc12
< 1000 nM	CN1CCN(c2cccc3c(Nc4n[nH]c5c(F)cccc45)nc(-c4ccc5[nH][nH]c(=O)c5c4C(F)(F)F)nc23)CC1
< 1000 nM	O=c1[nH][nH]c2ccc(-c3nc(Nc4n[nH]c5ccccc45)cc(Oc4ccccc4)n3)c(C(F)(F)F)c12
< 1000 nM	Cc1cnc(NC(=O)CC(=O)Oc2ccc3c(=O)[nH][nH]c3c2)s1
< 1000 nM	O=c1[nH][nH]c2cc(SCC3CCCC3Nc3cc(C4CC4)[nH]n3)ccc12 (stereo not given)
< 1000 nM	Cn1cnc(NCCCOc2ccc3c(=O)[nH][nH]c3c2)c1
< 1000 nM	O=c1[nH][nH]c2ccc(-c3nc(Nc4cc(-c5ccccc5)[nH]n4)c4ccccc4n3)c(C(F)(F)F)c12
< 1000 nM	O=c1[nH][nH]c2ccc(-c3nc4c(c(Nc5n[nH]c6ccc(F)cc56)n3)CN(Cc3ccccc3)CC4)c(C(F)(F)F)c12
< 1000 nM	O=c1[nH][nH]c2cc(CCCC(Nc3nccnn3)c3ccccc3)ccc12 (stereo not given)
< 1000 nM	O=c1[nH][nH]c2cc(OC3COCC(Nc4ccccn4)C3)ccc12 (stereo not given)
< 1000 nM	O=c1[nH][nH]c2cc(C(F)(F)F)c(-c3cc(-c4ccccc4)cc(Nc4n[nH]c5ccccc45)n3)cc12

Ki	SMILES
< 1000 nM	O=C(CCSc1ccc2c(=O)[nH][nH]c2c1)Nc1cc(C2CC2)[nH]n1
< 1000 nM	Cc1cnc(NC2COCC(Sc3ccc4c(=O)[nH][nH]c4c3)C2)s1 (stereo not given)
< 1000 nM	Cc1cc(Nc2nc(-c3cc4c(=O)[nH][nH]c4cc3Cl)cc3ccccc23)n[nH]1
< 1000 nM	O=c1[nH][nH]c2cc(Cl)c(-c3cc(N4CCCCC4)nc(Nc4n[nH]c5ccccc45)n3)cc12
< 1000 nM	Cc1cc(Nc2nc(CCc3ccc4[nH][nH]c(=O)c4c3)nc3c2CCCC3)n[nH]1
< 1000 nM	O=c1[nH][nH]c2ccc(C3COCC(Nc4nccnn4)C3)cc12 (stereo not given)
< 1000 nM	Cc1cnc(NC(CCNc2ccc3c(=O)[nH][nH]c3c2)c2ccccc2)s1 (stereo not given)
< 1000 nM	Cn1cnc(NC2COCC(SCc3ccc4c(=O)[nH][nH]c4c3)C2)c1 (stereo not given)
< 1000 nM	Cc1cc(Nc2nc(C3(c4ccc5c(=O)[nH][nH]c5c4)CC3)nc3ccccc23)n[nH]1
< 1000 nM	O=c1[nH][nH]c2ccc(-c3cc4ccccc4c(Nc4n[nH]c5c(F)cc(F)cc45)n3)c(C(F)(F)F)c12
< 1000 nM	O=c1[nH][nH]c2cc(Nc3nc(Nc4n[nH]c5ccccc45)c4ccccc4n3)ccc12
< 1000 nM	Cc1cc(Nc2cc(COCCN(C)C)nc(Sc3ccc4c(=O)[nH][nH]c4c3)n2)n[nH]1
< 1000 nM	O=c1[nH][nH]c2ccc(-c3nc(Nc4cc(C5CC5)[nH]n4)nc(-c4ccccc4)n3)cc12
< 1000 nM	CCc1cc(Nc2cnnc(-c3ccc4[nH][nH]c(=O)c4c3)n2)n[nH]1
< 1000 nM	O=c1[nH][nH]c2ccc(-c3nc4c(c(Nc5n[nH]c(C6CC6)n5)n3)CCCCC4)c(C(F)(F)F)c12
< 1000 nM	O=c1[nH][nH]c2ccc(-c3nc(Nc4n[nH]c(-c5ccccc5)c4-c4ccccc4)c4ccccc4n3)c(C(F)(F)F)c12
< 1000 nM	O=c1[nH][nH]c2cc(NC3CCC(Nc4cc(C5CC5)[nH]n4)C3)ccc12 (stereo not given)
< 1000 nM	O=c1[nH][nH]c2cc([C@@H]3C[C@H]3c3nc(Nc4n[nH]c5c(F)cccc45)c4ccccc4n3)ccc12
< 1000 nM	O=c1[nH][nH]c2cc(Oc3cc4ccccc4c(Nc4n[nH]c5ccccc45)n3)ccc12
< 1000 nM	O=C(CCNc1nccnn1)Oc1ccc2c(=O)[nH][nH]c2c1
< 1000 nM	CCc1cc(Nc2nc(-c3ccncc3)nc(-c3ccc4[nH][nH]c(=O)c4c3)n2)n[nH]1
< 1000 nM	O=c1[nH][nH]c2cc(Nc3nc(Nc4cc(C5CCC5)[nH]n4)c4ccccc4n3)ccc12
< 1000 nM	O=c1[nH][nH]c2cc(Sc3nc(Nc4cc[nH]n4)c4ccccc4n3)ccc12
< 1000 nM	Cn1cnc(NC2CCCC(Nc3ccc4c(=O)[nH][nH]c4c3)C2)c1 (stereo not given)

Ki	SMILES
< 1000 nM	O=c1[nH][nH]c2cc(Oc3nccc(Nc4cc(C5CC5)[nH]n4)n3)ccc12
< 1000 nM	Cc1cc(Nc2cc(C)[nH]n2)nc(Nc2ccc3c(=O)[nH][nH]c3c2)n1
< 1000 nM	O=c1[nH][nH]c2cc(Cl)c(-c3nc(Nc4n[nH]c5ccc(F)cc45)c4cnoc4n3)cc12
< 1000 nM	Cc1cc(Nc2cc(-c3cccc([N+](=O)[O-])c3)nc(Nc3ccc4c(=O)[nH][nH]c4c3)n2)n[nH]1
< 1000 nM	Cc1cc(Nc2nc(Sc3ccc4c(=O)[nH][nH]c4c3)nc3cc(OCCCN(C)C)ccc23)n[nH]1
< 1000 nM	O=c1[nH][nH]c2cc(SCCC(Nc3ccccn3)c3ccccc3)ccc12 (stereo not given)
< 1000 nM	O=c1[nH][nH]c2cc(SC3COCC(Nc4nccnn4)C3)ccc12 (stereo not given)
< 1000 nM	O=c1[nH][nH]c2cc(NC3CCC(Nc4nccnn4)C3)ccc12 (stereo not given)
< 1000 nM	Cc1cnc(NC2CCC(Sc3ccc4c(=O)[nH][nH]c4c3)C2)s1 (stereo not given)
< 1000 nM	O=c1[nH][nH]c2cc(OCC3CCCC3Nc3ccccn3)ccc12 (stereo not given)
< 1000 nM	O=c1[nH][nH]c2cc(C3(C4CCCC(Nc5ccccn5)C4)CC3)ccc12 (stereo not given)
< 1000 nM	O=c1[nH][nH]c2cc(OCC3CCCC3Nc3cc(C4CC4)[nH]n3)ccc12 (stereo not given)
< 1000 nM	O=c1[nH][nH]c2cc(SC3CCC(Nc4nccnn4)C3)ccc12 (stereo not given)
< 1000 nM	Cn1cnc(NC2CCCC(c3ccc4[nH][nH]c(=O)c4c3)C2)c1 (stereo not given)
< 1000 nM	O=c1[nH][nH]c2ccc(-c3nc4c(c(Nc5n[nH]c(-c6cccnc6)n5)n3)CCCC4)c(C(F)(F)F)c12
< 1000 nM	Cc1cc(Nc2cc(C)[nH]n2)nc(Cc2ccc3c(=O)[nH][nH]c3c2)n1
< 1000 nM	O=c1[nH][nH]c2ccc(-c3nc(Nc4n[nH]c5c(F)cccc45)c4ccncc4n3)c(Cl)c12
< 1000 nM	O=c1[nH][nH]c2cc(SC3CCC(Nc4cc(C5CC5)[nH]n4)C3)ccc12 (stereo not given)
< 1000 nM	CCc1cc(Nc2cc(C)[nH]n2)nc(CSc2ccc3[nH][nH]c(=O)c3c2)n1
< 1000 nM	Cc1cc(Nc2cc(-c3cc4c(=O)[nH][nH]c4cc3C(F)(F)F)nc(N3CCNCC3)c2)n[nH]1
< 1000 nM	O=c1[nH][nH]c2cc(Cl)c(-c3cc(Nc4cc(C5CC5)[nH]n4)c4ccccc4n3)cc12
< 1000 nM	Cc1cc(Nc2nc(COc3ccc4[nH][nH]c(=O)c4c3)nc3c2CCCCC3)n[nH]1
< 1000 nM	O=c1[nH][nH]c2cc(Nc3cccc(Nc4n[nH]c5ccccc45)n3)ccc12

From the Kinase Knowledgebase extract (Sharma et al. 2016)
